The record followed here is US4156011A, “Sulphur- and oxygen-containing diaryl compounds” (priority 1974, dated 1979).

Data set [1] deals with blood platelet aggregation. Description: Anti-aggregation action in rats (graded / in words). The data set is classed as in vivo. The arrangement: key to Anti-aggregation action: -: zero activity; +: significant activity; ++: intense activity; +++: very intense activity.
Description: (b) by ADP: the inhibition of aggregation (that is to say the % transmission).
The nature of data set [2]: Solubility of the isolated product.
Data set [3] concerns platelets (aggregation induced by collagen). Description: Anti-aggregation action, platelet aggregation induced by collagen. Conditions: 4 days. Format: in vivo, male Wistar rats. The method, then: (a) by collagen: the inhibition of aggregation (which corresponds to the % transmission), the latency period and the speed; and
In Table IV which follows have been shown the results relating to the anti-aggregation action of some products on the blood of male Wistar rats, the aggregating agents used being collagen/acetic acid diluted 1/10, and ADP at 1 μM.

Data set [4] is described as follows: Reduction of lipids and cholesterol in rats treated orally. Format: in vivo. To be noted: for inhibition in vivo at 20 mg/kg: po, 120 h, 5 days.
Data set [5] can be described thus: Hypo-lipidaemic and hypo-cholesterolaemic action in rats on hyper-lipid diet. Format: in vivo, Wistar rats. To be noted: hyper-lipid diet; for inhibition at 10 mg/kg / inhibition at 25 mg/kg / inhibition at 100 mg/kg: Rattus norvegicus, normal diet = 100%, hyper-lipid diet = 0%. The source says:
A. a batch of rats receiving a normal diet (percentage inhibition=100%);
B. a batch of rats receiving a hyper-lipid diet (percentage inhibition=0%);
C. a batch of rats receiving the hyper-lipid diet B with a daily dose, of 0.1 g/kg, of a reference product having a lipidaemia-normalising action, namely Lipavlon [ethyl 2-(p-chlorophenoxy)-2-methyl-propionate];
D. a batch of rats receiving the hyper-lipid diet B with a daily dose, of 0.1 g/kg, of another product having a lipidaemia-normalising action, namely LL 1558 [1,10-bis-(2-hydroxyethyl-thio)-decane]; and
E. a batch of rats receiving the hyper-lipid diet B with a daily dose of 10 mg/kg and 25 mg/kg, where necessary, higher doses.
In Table III which follows have been shown the results relating to CRL 40,201 (the product of Example 17) and CRL 40,202 (the product of Example 18) in respect of the hypo-lipidaemic action and hypo-cholesterolaemic action.

A short description of data set [6]: Hypo-lipidaemic and hypo-cholesterolaemic action of other products (Table V). The data set is classed as in vivo, rats. To be noted: Rattus norvegicus, 96 h; for change in vivo at 10 mg/kg: oral 10 mg/kg for 4 days; for change in vivo at 100 mg/kg: oral 100 mg/kg for 4 days. The source says: The results of the anti-aggregation test and of the hypo-[…] action and hypo-cholesterolaemic action tests of other products of the invention have been […] Table V which follows, the code used being the following (for each dose shown): […]

[7] abbreviates: oral daily dose 0.010 g/kg, read-out: Total cholesterol % inhibition.
Where [8] appears, read: oral daily dose 0.010 g/kg, read-out: Total lipids % inhibition.
Setting [9] is: oral daily dose 0.025 g/kg, read-out: Total cholesterol % inhibition.
[10] abbreviates: oral daily dose 0.025 g/kg, read-out: Total lipids % inhibition.
Where [11] appears, read: oral 200 mg/kg, collagen/acetic acid diluted 1/10.
Setting [12] is: read-out: Total lipids (change).
Where [13] appears, read: oral daily dose 0.1 g/kg, read-out: Total cholesterol % inhibition.
[14] abbreviates: oral daily dose 0.1 g/kg, read-out: Total lipids % inhibition.

Molecules are shown by their SMILES. Counter-ions that a name gives are not always drawn. Like-named read-outs stand apart in the source and are kept apart here.

In the case of `CC(CO)Sc1ccc(Oc2ccc(Cl)cc2)cc1` (racemic) [CRL 40,282, (±)-2-[4-(4-Chlorophenoxy)-phenylthio]-1-propanol], the Anti-aggregation action entry in data set [1] (oral 100 mg/kg for 4 days) is recorded as “+”. Further, in data set [2], the “solubility in water (in words)” value is “water-insoluble”.
`CC(CNCCO)Sc1ccc(Oc2ccc(Cl)cc2)cc1` (racemic) [CRL 40,283, (±)-N-Hydroxyethyl-2-[4-(4-chlorophenoxy)-phenylthio]-1-propylamine]: in data set [1] (oral 200 mg/kg for 4 days), the Anti-aggregation action entry was “+”. Also, in data set [2] (aqueous hydrochloric acid, pH 3 to pH 7), the “solubility in aqueous hydrochloric acid solution (in words)” value is “soluble in an aqueous hydrochloric acid solution at between pH 3 and pH 7”.
`CC(CO)Oc1ccc(Oc2ccc(Cl)cc2)cc1` (racemic) [CRL 40,300, (±)-2-[4-(4-Chlorophenoxy)-phenoxy]-1-propanol]: the Anti-aggregation action result in data set [1] (oral 100 mg/kg for 4 days) is on record as “+”. Besides, in data set [2], the “solubility in water (in words)” value is “insoluble in water”.
Regarding `CC(COC(=O)C(C)(C)Oc1ccc(Sc2ccc(Cl)cc2)cc1)SCCCCCCCCCCSC(C)COC(=O)C(C)(C)Oc1ccc(Sc2ccc(Cl)cc2)cc1` (racemic) [CRL 40,387, (±)-2,15-Dimethyl-3,14-dithia-1,16-hexadecyl di-{2-[p-(p-chlorophenylthio)-phenoxy]-2-methylpropionate}], the “effect on the blood platelet aggregation” value in data set [1] (10, 20 and 50 mg/kg orally) was “no effect”.
Take `CC(COC(=O)CSc1ccc(Oc2ccc(Cl)cc2)cc1)SCCCCCCCCCCSC(C)COC(=O)CSc1ccc(Oc2ccc(Cl)cc2)cc1` (racemic) [CRL 40,405, (±)-2,15-Dimethyl-3,14-dithia-1,16-hexadecyl di-[p-(p-chlorophenoxy)-phenylthio-acetate]]: the “% transmission (collagen test)” value in data set [3] (100 mg/kg) was -10%. In addition, in data set [3] (100 mg/kg, unit not given), the “latency time (collagen test)” value is “+10” and the “speed (collagen test)” value is on record as -17. The compound also showed an inhibition in vivo at 100 mg/kg in data set [4] (Rattus norvegicus, 96 h, oral 100 mg/kg, 4 days) of 44%. Further, in data set [4] (Rattus norvegicus, read-out: reduction in the cholesterol), the inhibition in vivo at 20 mg/kg was 30%. For the same compound, the inhibition in vivo at 20 mg/kg in data set [4] (Rattus norvegicus, read-out: reduction in the lipids) turned out to be 12%. In data set [4] (oral 100 mg/kg, 4 days), the “reduction in the (total) lipids” value was 35%.
For the compound `CC(C)(Oc1ccc(Sc2ccc(Cl)cc2)cc1)C(=O)O` [CRL 40,201, 4-(4-Chlorophenylthio)-phenoxyisobutyric acid], the inhibition (in general, the percentage by which the read-out fell short of the control) at 10 mg/kg in data set [5] (setting [7]) came out at 35%; in data set [5] (setting [8]) it was 30%. For the same compound, the results for the inhibition at 25 mg/kg in data set [5] (setting [9]) and in data set [5] (setting [10]) were 48% and 45%, respectively. Also, the Total cholesterol is 3.28 g/L in data set [5] (oral daily dose 0.010 g/kg) and 2.8 g/L in data set [5] (oral daily dose 0.025 g/kg). The Total lipids is 9 g/L in data set [5] (oral daily dose 0.010 g/kg) and 7.7 g/L in data set [5] (oral daily dose 0.025 g/kg).
With `CC(C)(Oc1ccc([S+]([O-])c2ccc(Cl)cc2)cc1)C(=O)O` (stereo not shown) [CRL 40,202, 4-(4-Chlorophenylsulphinyl)-phenoxyisobutyric acid], the inhibition at 10 mg/kg is 26% in data set [5] (setting [7]) and 27% in data set [5] (setting [8]). Besides, the inhibition at 25 mg/kg was found to be 59% in data set [5] (setting [9]) and 53% in data set [5] (setting [10]). For the same compound, the Total cholesterol was 3.64 g/L in data set [5] (oral daily dose 0.010 g/kg) and 2.38 g/L in data set [5] (oral daily dose 0.025 g/kg). For the same compound, the Total lipids in data set [5] (oral daily dose 0.010 g/kg) stood at 9.28 g/L; in data set [5] (oral daily dose 0.025 g/kg), 7.05 g/L.
`CC(C)(Oc1ccc(Sc2ccc(Cl)cc2)cc1)C(=O)NCCO` [CRL 40,251, N-Hydroxyethyl-4-(4-chlorophenylthio)-phenoxy-isobutyramide]: in data set [3] (setting [11]), the “change in aggregation, collagen, latency period” value is on record as “+23%” and the “change in aggregation, collagen, speed” value is reported as -21%. The “solubility in water (in words)” value in data set [2] was “insoluble in water”.
Take `CC(C)(Oc1ccc(Sc2ccc(Cl)cc2)cc1)C(=O)OCCSCCCCCCCCCCSCCOC(=O)C(C)(C)Oc1ccc(Sc2ccc(Cl)cc2)cc1` [CRL 40,253, 3,14-Dithia-1,16-hexadecyl di-[4-(4-chlorophenylthio)-phenoxyisobutyrate]]: the change in vivo at 10 mg/kg in data set [6] (read-out: Cholesterol (change)) and in data set [6] (setting [12]) was -40% each time. Further, the “solubility in water (in words)” value in data set [2] is “insoluble in water”.
Regarding `CC(C)(CO)Oc1ccc(Oc2ccc(Cl)cc2)cc1` [CRL 40,310, 4-(4-Chlorophenoxy)-phenoxy-isobutanol], the change in vivo at 100 mg/kg in data set [6] (read-out: Cholesterol (change)) was -32%; in data set [6] (setting [12]) it was -20%. In data set [2], the “solubility in water (in words)” value is given as “insoluble in water”.
Regarding `CC(C)(COS(C)(=O)=O)Oc1ccc(Oc2ccc(Cl)cc2)cc1` [CRL 40,312, 4-(4-Chlorophenoxy)-phenoxy-isobutyl mesylate], the Anti-aggregation action result in data set [1] (oral 100 mg/kg for 4 days) is given as “+”. The “solubility in water (in words)” value in data set [2] is given as “insoluble in water”.
With `Clc1ccc(Oc2ccc(OCC3=NCCN3)cc2)cc1` [CRL 40,322, 2-[4-(4-Chlorophenoxy)-phenoxy]-methyl-2-imidazoline hydrochloride], the Anti-aggregation action result in data set [1] (oral 100 mg/kg for 4 days) is given as “+”. The “solubility in hot water (in words)” value in data set [2] (hot water, hydrochloride) is given as “soluble in hot water”.
On to `CCN(CC)CCOc1ccc(Oc2ccc(Cl)cc2)cc1.Cl` [CRL 40,330, N,N-Diethyl-2-[4-(4-chlorophenoxy)-phenoxy]-ethylamine hydrochloride], for which the Anti-aggregation action entry in data set [1] (oral 100 mg/kg for 4 days) was “+”. Besides, the change in vivo at 100 mg/kg in data set [6] (read-out: Cholesterol (change)) and in data set [6] (setting [12]) was -13% throughout.
Take `CC(C)(O)COc1ccc(Oc2ccc(Cl)cc2)cc1` [CRL 40,332, 1-[4-(4-Chlorophenoxy)-phenoxy]-2-methyl-2-propanol]: the Anti-aggregation action entry in data set [1] (oral 100 mg/kg for 4 days) is listed as “+”. Further, the “solubility in water (in words)” value in data set [2] is recorded as “insoluble in water”.
As for `O=C(O)COc1ccc(Oc2ccc(Cl)cc2)cc1` [CRL 40,333, 4-(4-Chlorophenoxy)-phenoxyacetic acid], in data set [1] (oral 100 mg/kg for 4 days), the Anti-aggregation action result is reported as “++”. Moreover, the change in vivo at 100 mg/kg was -20% in data set [6] (read-out: Cholesterol (change)) and -24% in data set [6] (setting [12]). Further, the “solubility in water (in words)” value in data set [2] is “insoluble in water”.
For the compound `CCN(CC)CCNC(=O)COc1ccc(Oc2ccc(Cl)cc2)cc1.Cl` [CRL 40,334, N-(2-Diethylaminoethyl)-4-(4-chlorophenoxy)-phenoxy-acetamide hydrochloride], the Anti-aggregation action entry in data set [1] (oral 100 mg/kg for 4 days) was “+++”. Further, the change in vivo at 100 mg/kg in data set [6] (read-out: Cholesterol (change)) and in data set [6] (setting [12]) was -17% each time. The “solubility in water (in words)” value in data set [2] was “soluble in water”.
Regarding `OCCSCCCCCCCCCCSCCO` [LL 1558, 1,10-bis-(2-hydroxyethyl-thio)-decane, reference compound], the inhibition at 100 mg/kg in data set [5] (setting [13]) was determined as 63%; in data set [5] (setting [14]), 54%. This compound registered a Total cholesterol in data set [5] (oral daily dose 0.1 g/kg) of 2.22 g/L. Besides, the Total lipids in data set [5] (oral daily dose 0.1 g/kg) was 7 g/L.
The corresponding values for `CCOC(=O)C(C)(C)Oc1ccc(Cl)cc1` [Lipavlon, ethyl 2-(p-chlorophenoxy)-2-methyl-propionate, reference compound] are 11%, 14%, 4.18 g/L and 10.4 g/L.
